Patent US20110250629A1, “ALCOHOL PRODUCTION PROCESS” (Lanza Tech New Zealand Limited, priority 2009, published 2011)

Assays:
[1] = test system: Clostridium autoethanogenum DSM23693; details: 37° C., PETC medium
Description: The ethanol tolerance of Clostridium autoethanogenum DSM23693 was tested in serum bottles (FIG. 5). Ethanol was added in various concentrations to an active growing culture at 37° C. in PETC medium (Tab. 1) with 30 psi steel mill gas as substrate (approx 48% CO, 32% N2, 2% H2, and 18% CO2). Ethanol concentrations were confirmed by HPLC analysis using an Agilent 1100 Series HPLC system equipped with a RID operated at 35° C. (Refractive Index Detector) and an Alltech IOA-2000 Organic acid column (150×6.5 mm, particle size 5 μm) kept at 60° C. Slightly acidified water was used (0.005 M H2SO4) as mobile phase with a flow rate of 0.7 ml/min. To remove proteins and other cell residues, 400 μl samples were mixed with 100 μl of a 2% (w/v) 5-Sulfosalicylic acid and centrifuged at 14,000×g for 3 min to separate precipitated residues. 10 μl of the supernatant were then injected into the HPLC for analyses.

[2] = test system: Clostridium autoethanogenum; details: fermentation broth
Clostridium thermocellum = details: cited from earlier work

SMILES: CCO [ethanol, Ethanol]
- microbial biomass reached over a 24 hour period ([1]; 20 g/L ethanol added, 30 psi steel mill gas, start approx 0.2 g/L biomass, no-added-ethanol culture reached approx 0.85 g/L): 0.45 g/L
- ethanol concentration at which growth was found to be inhibited ([1]; serum bottles): 10-20 g/l
- concentration over which growth rate is partially inhibited and productivity decreases [2]: 20 to 40 g/L
- concentration over which metabolism and growth rate are substantially slowed [2]: 40 to 50 g/L
- ethanol concentration in which the micro-organism can still thrive (Clostridium thermocellum; after strain selection): up to 8%
- ethanol concentration inhibitory to growth (Clostridium thermocellum; unselected strain): above 1%
